# Several values for one entry are separate records, joined by “and”; a condition that tells them apart may be missing. Equal values may be shown once.
# Molecular target: T1, EcThrRS_L489M (Escherichia coli, UniProt P0A8M3, L489M)
# T1 construct: The E. coli ThrRS (residues 242-642, Supplementary Note 1) wild type; 6xHis (C); made in house; host or cells: E. coli BL21 (DE3)
# Test: ATP hydrolysis assay
# Assay type: biochemical
# Settings: for ATP hydrolysis activity, inhibitory curve data point: OB, replicates, sheet Fig.2b
# Description: 200 nM EcThrRS wide type and mutants, ObaO and ObaO_S464G mutant were incubated with serially diluted OB (0 to 10 μM for EcThrRS, 0 to 40 μM for ObaO) in a buffer containing 25 mM HEPES pH 7.5, 50 mM NaCl, 40 mM MgCl2, 30 mM KCl, 0.01 mg/mL bovine serum albumin (BSA), and 0.004% Tween-20 at 37 °C for 4 h and then mixed 1:1 with a substrate mixture containing 4 μM ATP, 40 μM L-threonine, 25 mM HEPES pH 7.5, 50 mM NaCl, 40 mM MgCl2, 30 mM KCl, 0.01 mg/mL BSA, and 0.004% Tween-20. The ATP hydrolysis reaction was performed at 37 °C for 4 h.
# After incubation, the detection solution from the Kinase-Glo® luminescent kit (Promega, USA) was added to the reaction system at a 1:1 ratio, and the mixture was gently shaken for 10 min. The chemiluminescence signal was measured using a microplate reader (Tecan, USA). All experiments were performed in four replicates. The data were processed using GraphPad Prism 8 software.
# T1 sequence (P0A8M3 242-642 L489M): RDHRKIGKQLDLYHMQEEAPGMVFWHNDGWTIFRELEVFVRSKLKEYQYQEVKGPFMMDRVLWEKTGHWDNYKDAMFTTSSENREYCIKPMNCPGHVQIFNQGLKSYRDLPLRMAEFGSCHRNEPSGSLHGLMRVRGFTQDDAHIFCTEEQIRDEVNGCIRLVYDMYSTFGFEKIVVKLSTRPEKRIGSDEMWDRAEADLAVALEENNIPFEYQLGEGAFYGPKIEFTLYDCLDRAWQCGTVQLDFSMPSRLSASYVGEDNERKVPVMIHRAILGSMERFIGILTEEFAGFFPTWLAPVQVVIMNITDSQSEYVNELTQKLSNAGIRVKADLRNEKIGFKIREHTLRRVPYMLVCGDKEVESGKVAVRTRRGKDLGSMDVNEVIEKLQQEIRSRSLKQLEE
compound,measurement,setting,value
"O=C(N[C@@H]1C(=O)O[C@@H]1Cc1ccc([N+](=O)[O-])cc1)c1cccc(O)c1O [OB, Obafluorin]",IC50,ATP hydrolysis activity,215 nM
same,"ATP hydrolysis activity, inhibitory curve data point","Log10 Conc. 3.097, L489M",14.911 and 30.795 and 20.792 and 22.166
same,"ATP hydrolysis activity, inhibitory curve data point","Log10 Conc. 3.398, L489M",25.404 and -0.594 and -13.763 and 3.682
same,"ATP hydrolysis activity, inhibitory curve data point","Log10 Conc. 3.699, L489M",26.774 and 18.620 and -26.210 and 6.396
same,"ATP hydrolysis activity, inhibitory curve data point","Log10 Conc. 4.000, L489M",5.096 and 5.493 and 1.083 and 8.709

# Source: PMC11252418, “Specific glycine-dependent enzyme motion determines the potency of conformation selective inhibitors of threonyl-tRNA synthetase” (Communications Biology, 2024)
